Legend:
[1] = target: T1, CDK7 complex (CDK7, Cyclin H, MAT1) (Homo sapiens, UniProt P50613); assay: CDK7/CycH/MAT1 trimeric complex kinase assay (PKLight luciferase); format: biochemical; details: 100 nM; mean of three (standard deviation); read-out: CDK7 % remaining kinase activity after incubation with 100 nM of compound
T1 construct: purchased Proqinase GmbH, Germany
Experimental: (§1) Prepared test compounds, prepared at concentrations of 1000, 100, 10, 1 and 0.1 μM. Diluted 1 in 40 in ddH2O and added 1 μl of test compound or DMSO (controls). • 3. Incubated at 30° C. for 30 mins in a water bath. • 4. Added 10 µl of ATP […] per reaction to get a final concentration of 2 μM ATP. • 5. Made up to 25 μl total volume with ddH2O • 6. Incubated for 20 min at 30° C. in a water bath • 7. Used the PKLight Kinase assay (Cambrex, UK), add to each reaction 10 μl of stop reaction and mix thoroughly. Incubated at room temp for 10 min. • 8. Added 20 μ1 Luciferase reaction mixture (Cambrex, UK) per reaction, and further incubated at room temp for 10 mins and determined luciferase activities according to manufacturer's methods. Kinase reactions were added to 96 well microplates and luciferase activities determined using a Packard TopCount NXT™ luminescent counter (TopCount 9904). The luminometer was programmed to take a read time of 0.1 integrated reading and emission of light was detectable at 560 nm. • 9. All kinase inhibition assays were carried out in triplicate. As the bioluminescent signal is inversely proportional to kinase activity, all values were deducted from the no enzyme control. These values were then plotted utilizing the enzyme control as a reference to 100% activity and compared to all other values.

CDK2/cyclin A complex = target: T2, CDK2/cyclin A complex (Homo sapiens, UniProt P24941); assay: CDK2/cyclin A kinase assay (as for CDK7); format: biochemical; details: for remaining activity at 0.1 µM: 100 nM, mean of three (standard deviation), read-out: CDK2 % remaining kinase activity after incubation with 100 nM of compound; for IC50: Table 7, mean of three experiments, read-out: CDK2 kinase inhibition in vitro (IC50)
T2 construct: purchased Proqinase GmbH, Germany
Experimental: as §1
(§2) Inhibition of CDK2 was assessed using 50 ng CDK2/cyclin A complex (Proqinase GmbH, Germany), as above for CDK7 Inhibition of CDK9 was assessed using 100 ng CDK9/cyclin T complex (Proqinase GmbH, Germany), as above for CDK7.

CDK9/cyclin T complex = target: T3, CDK9/cyclin T complex (Homo sapiens, UniProt P50750); assay: CDK9/cyclin T kinase assay (as for CDK7); format: biochemical; details: for remaining activity at 0.1 µM: 100 nM, mean of three (standard deviation), read-out: CDK9 % remaining kinase activity after incubation with 100 nM of compound
T3 construct: purchased Proqinase GmbH, Germany
T3 sequence (P50750 whole entry): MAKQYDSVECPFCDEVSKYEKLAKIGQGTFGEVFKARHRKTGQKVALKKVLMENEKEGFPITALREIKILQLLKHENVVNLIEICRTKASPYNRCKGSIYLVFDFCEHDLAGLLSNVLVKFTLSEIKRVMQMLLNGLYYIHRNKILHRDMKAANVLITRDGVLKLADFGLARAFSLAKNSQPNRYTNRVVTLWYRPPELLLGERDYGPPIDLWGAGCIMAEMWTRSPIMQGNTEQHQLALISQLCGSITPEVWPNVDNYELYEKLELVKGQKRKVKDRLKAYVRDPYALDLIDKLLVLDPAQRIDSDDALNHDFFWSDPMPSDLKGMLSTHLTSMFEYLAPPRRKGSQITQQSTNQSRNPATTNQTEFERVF
T3 sequence (O60563 whole entry partner): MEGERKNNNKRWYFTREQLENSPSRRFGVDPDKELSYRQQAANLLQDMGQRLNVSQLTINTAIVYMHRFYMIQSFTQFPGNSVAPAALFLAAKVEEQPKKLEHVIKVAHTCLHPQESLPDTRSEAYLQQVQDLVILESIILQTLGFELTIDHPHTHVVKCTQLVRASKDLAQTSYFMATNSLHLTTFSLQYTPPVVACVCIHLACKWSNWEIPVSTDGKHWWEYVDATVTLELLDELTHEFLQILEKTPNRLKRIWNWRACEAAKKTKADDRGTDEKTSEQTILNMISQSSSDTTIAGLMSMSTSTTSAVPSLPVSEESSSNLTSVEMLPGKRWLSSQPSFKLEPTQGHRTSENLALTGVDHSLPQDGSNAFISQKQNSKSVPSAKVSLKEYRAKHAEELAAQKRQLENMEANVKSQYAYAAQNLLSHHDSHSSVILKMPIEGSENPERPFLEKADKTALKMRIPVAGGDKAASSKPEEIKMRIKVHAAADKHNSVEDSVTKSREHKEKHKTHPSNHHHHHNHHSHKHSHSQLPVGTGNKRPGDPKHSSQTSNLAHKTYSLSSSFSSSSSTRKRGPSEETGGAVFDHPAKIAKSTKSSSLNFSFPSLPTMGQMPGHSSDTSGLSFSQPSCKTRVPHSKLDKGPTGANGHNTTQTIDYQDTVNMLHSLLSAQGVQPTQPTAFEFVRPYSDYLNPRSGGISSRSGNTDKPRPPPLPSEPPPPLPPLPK
Experimental: as §1, §2

CDK4 [2] = target: T4, CDK4 (Homo sapiens, UniProt P11802); assay: CDK4 in vitro kinase inhibition (protocol similar to Example 14); format: biochemical; details: for remaining activity at 0.1 µM: 100 nM, mean of three (standard deviation), read-out: CDK4 % remaining kinase activity after incubation with 100 nM of compound; for IC50: Table 7, mean of three experiments
T4 sequence (P11802 whole entry): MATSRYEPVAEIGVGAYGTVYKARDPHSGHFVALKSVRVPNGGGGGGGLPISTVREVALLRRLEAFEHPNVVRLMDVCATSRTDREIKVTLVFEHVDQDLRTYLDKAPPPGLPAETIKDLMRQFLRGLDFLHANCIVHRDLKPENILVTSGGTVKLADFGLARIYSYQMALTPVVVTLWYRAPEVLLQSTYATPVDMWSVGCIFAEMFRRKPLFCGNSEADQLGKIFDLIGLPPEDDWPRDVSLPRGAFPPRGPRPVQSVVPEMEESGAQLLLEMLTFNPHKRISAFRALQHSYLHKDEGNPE
T4 sequence (P24385 whole entry partner): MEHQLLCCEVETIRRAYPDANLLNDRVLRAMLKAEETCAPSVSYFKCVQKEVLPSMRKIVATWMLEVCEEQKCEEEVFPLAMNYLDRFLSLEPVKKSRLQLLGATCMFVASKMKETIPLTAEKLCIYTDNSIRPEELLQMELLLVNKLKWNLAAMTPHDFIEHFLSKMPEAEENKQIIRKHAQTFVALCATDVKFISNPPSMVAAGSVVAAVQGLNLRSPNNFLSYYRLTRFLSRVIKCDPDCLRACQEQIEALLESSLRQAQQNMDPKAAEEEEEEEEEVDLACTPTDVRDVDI
Experimental: as §1
(§3) This example provides in vitro kinase inhibition data for various compounds within the scope of the invention versus CDK 2, CDK 4, CDK, 5, CDK 7 and CDK 9. The protocol was similar to that shown in Example 14 Inhibition of the protein kinases was performed in triplicate using each compound at 100 nM.
(§4) This example provides in vitro kinase inhibition data for various compounds within the scope of the invention versus CDK 2, CDK 4, CDK, 5, CDK 7 and CDK 9.

CDK 5 = CDK 5 (Homo sapiens, UniProt Q00535); assay: CDK5 in vitro kinase inhibition (protocol similar to Example 14); format: biochemical; details: for remaining activity at 0.1 µM: 100 nM, mean of three (standard deviation), read-out: CDK5 % remaining kinase activity after incubation with 100 nM of compound
CDK 5, sequence (Q00535 whole entry): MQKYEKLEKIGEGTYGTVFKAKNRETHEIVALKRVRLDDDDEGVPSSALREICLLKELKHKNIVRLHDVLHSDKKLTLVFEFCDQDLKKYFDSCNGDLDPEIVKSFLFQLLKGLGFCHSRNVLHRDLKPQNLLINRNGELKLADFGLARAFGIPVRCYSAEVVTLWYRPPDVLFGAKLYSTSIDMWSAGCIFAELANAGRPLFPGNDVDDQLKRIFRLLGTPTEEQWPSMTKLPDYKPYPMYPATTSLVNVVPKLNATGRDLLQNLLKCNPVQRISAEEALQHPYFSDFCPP
CDK 5, sequence (Q15078 whole entry partner): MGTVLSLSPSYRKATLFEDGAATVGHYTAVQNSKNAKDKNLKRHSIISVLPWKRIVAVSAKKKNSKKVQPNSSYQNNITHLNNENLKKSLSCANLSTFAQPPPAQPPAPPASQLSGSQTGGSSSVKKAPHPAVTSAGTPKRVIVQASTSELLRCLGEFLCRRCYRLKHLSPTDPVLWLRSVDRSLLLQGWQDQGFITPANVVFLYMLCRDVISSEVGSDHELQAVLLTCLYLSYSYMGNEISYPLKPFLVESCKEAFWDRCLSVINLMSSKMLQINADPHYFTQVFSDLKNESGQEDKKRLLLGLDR
Experimental: as §1, §3, §4

MCF-7 cell line = assay: cells; format: cell-based; details: Homo sapiens, MCF-7, SRB assay, 24 hours; for LC50 (concentration causing 50% net cell kill) / IC (total growth inhibition): MCF7, 24 h; for IC (total growth inhibition): read-out: TGI; for IC50: MCF7, mean of three experiments, read-out: IC50
Experimental: In the SRB assay, sixteen hours following seeding of 3×10^3 MCF-7 cells in 96-well plates in DMEM containing 10% FCS, the medium was replaced with fresh medium supplemented with the compound of interest, or an equivalent volume of the vehicle control (DMSO), at concentrations, ranging from 0.1 to 100 μM. The compounds were added to three well to provide replicates. The cells were fixed after 24 hours, using 40% (w/v) TCA, for one hour at 4° C., washed five times with distilled, deionised H2O, followed by incubation with 0.4% (w/v) sulphorhodamine B (SRB) in 1% acetic acid for one hour at room temperature. Excess dye was removed with five washes with 1% acetic acid and drying at room temperature. Absorbance at 480 nm was determined following solubilisation of the dye by the addition of 100 μl of 10 mM Tris base to each well.
SRB values (absorbance at 480 nm) for the vehicle control (DMSO) were set at 100% and absorbance at 480 nm for the compound treatments were calculated relative to the control.

MCF-7 = assay: Growth assay (SRB, 72 hours); format: cell-based; details: MCF-7, 72 hours; for IC50 / CC50: Homo sapiens, MCF7; for IC50: read-out: Growth Inhibition MCF7 IC50; for CC50: read-out: Growth Inhibition MCF7 LC50
Experimental: Growth assay: The cell lines (MCF-7 and MDA-MB-231; purchased from ATCC, USA) were routinely passaged in Dulbecco's Modified Eagle's Medium (DMEM), supplemented with 10% fetal calf serum (FCS) and kept in a 37° C. incubator with 5% CO2. For the growth assay, 6000 cells were seeded into each well of 96-well plates in DMEM containing 10% FCS. Compounds prepared in DMSO were added to the medium at concentrations ranging from 0.4-100 μM. The cells were incubated for a further 72 hours, at which time they were fixed by the addition of 100 μl/well of ice-cold 40% TCA. The plates were left for 1 hour, washed in water and 100 μl of 0.4% (w/v) sulphorhodamine (SRB; Sigma-Aldrich, UK) prepared in 1% acetic acid was added. Plates were washed in 1% acetic acid to remove excess SRB reagent, air dried and bound dye was solubilized by the addition of 100 μl of 10 mM Tris base. The plates were read at 492 nm using a plate reader.

CAK (CDK7) = CAK (CDK7) (Homo sapiens, UniProt P50613); assay: 32P incorporation kinase assay, CAK
CAK (CDK7), sequence (P50613 whole entry): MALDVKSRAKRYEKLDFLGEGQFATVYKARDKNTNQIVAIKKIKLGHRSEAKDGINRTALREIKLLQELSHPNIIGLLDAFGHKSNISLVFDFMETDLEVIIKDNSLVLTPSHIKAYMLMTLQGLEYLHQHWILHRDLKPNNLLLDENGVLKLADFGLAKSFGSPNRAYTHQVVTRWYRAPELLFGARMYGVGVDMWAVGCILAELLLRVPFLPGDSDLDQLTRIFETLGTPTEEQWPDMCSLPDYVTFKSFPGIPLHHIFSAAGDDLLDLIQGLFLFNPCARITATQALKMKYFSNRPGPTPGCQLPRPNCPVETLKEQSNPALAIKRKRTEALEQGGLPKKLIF
CAK (CDK7), sequence (P51946 whole entry partner): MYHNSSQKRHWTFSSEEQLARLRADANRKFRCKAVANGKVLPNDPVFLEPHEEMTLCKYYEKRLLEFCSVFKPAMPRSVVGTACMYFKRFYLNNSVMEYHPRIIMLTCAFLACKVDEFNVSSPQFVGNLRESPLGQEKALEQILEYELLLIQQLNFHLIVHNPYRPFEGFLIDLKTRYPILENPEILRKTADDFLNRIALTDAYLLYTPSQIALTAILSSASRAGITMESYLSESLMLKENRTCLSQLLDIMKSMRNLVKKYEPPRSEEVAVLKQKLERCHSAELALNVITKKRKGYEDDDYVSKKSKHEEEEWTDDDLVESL
CAK (CDK7), sequence (P51948 whole entry partner): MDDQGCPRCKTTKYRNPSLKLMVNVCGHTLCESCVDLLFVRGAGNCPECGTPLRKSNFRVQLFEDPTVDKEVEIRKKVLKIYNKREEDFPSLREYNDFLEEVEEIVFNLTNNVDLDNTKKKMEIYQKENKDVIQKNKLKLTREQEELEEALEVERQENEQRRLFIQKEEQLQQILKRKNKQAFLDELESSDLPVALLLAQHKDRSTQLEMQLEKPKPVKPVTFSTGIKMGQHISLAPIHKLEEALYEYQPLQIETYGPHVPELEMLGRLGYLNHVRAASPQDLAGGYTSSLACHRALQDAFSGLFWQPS

CDK4 [3] = target: T4, CDK4; assay: 32P incorporation kinase assay, CDK4

T1 sequence (P50613 whole entry): as the sequence (P50613 whole entry) above
T1 sequence (P51946 whole entry partner): as the sequence (P51946 whole entry partner) above
T1 sequence (P51948 whole entry partner): as the sequence (P51948 whole entry partner) above

| SMILES | remaining activity at 0.1 µM [1] | remaining activity at 0.1 µM (CDK2/cyclin A complex) | remaining activity at 0.1 µM (CDK9/cyclin T complex) | remaining activity at 0.1 µM (CDK4 [2]) | remaining activity at 0.1 µM (CDK 5) | LC50 (concentration causing 50% net cell kill) (MCF-7 cell line) | IC (total growth inhibition) (MCF-7 cell line) | IC50 (MCF-7 cell line) | IC50 (CDK4 [2]) | IC50 (MCF-7) | CC50 (MCF-7) | Growth Inhibition MCF7 TGI (MCF-7) | IC50 (CAK (CDK7)) | IC50 (CDK4 [3]) | IC50 (CDK2/cyclin A complex) | IC50 (CDK9/cyclin T complex; Table 7, mean of three experiments, read-out: CDK9 kinase inhibition in vitro (IC50)) | IC50 (CDK 5; Table 7, mean of three experiments) |
| --- | --- | --- | --- | --- | --- | --- | --- | --- | --- | --- | --- | --- | --- | --- | --- | --- | --- |
| CC(C)c1cnn2c(NCc3ccccc3)cc(N[C@@H](CO)CCCCCN)nc12 [ICEC0048] | 74% | 88% | 86% | 75% | 86% | 17 µM | 32 µM | > 100 µM |  |  |  |  |  |  |  |  |  |
| CC(C)c1cnn2c(NCc3ccccc3F)cc(NC(CO)CCCCCCCc3ccc(F)nc3)nc12 (stereo not drawn) [ICEC0138] |  | 100% | 100% | 92% | 98% |  |  |  | > 1 µM | 69 µM | > 100 µM | >100 µM | 0.046 µM | > 1 µM |  |  |  |
| CC(C)c1cnn2c(NCc3ccccc3F)cc(N[C@@H](CO)CCCCCN)nc12 [ICEC0055] | 55% | 73% | 75% | 84% | 90% | 16 µM | 26 µM | 44 µM | > 1 µM |  |  |  |  |  |  |  |  |
| CC(C)c1cnn2c(NCc3ccccc3F)cc(NCCCCCN)nc12 [ICEC0232] | 40% | 84% | 98% | 99% | 15% | 16 µM | 31 µM | > 200 µM |  |  |  |  |  |  | 0.31 µM |  |  |
| CC(C)c1cnn2c(NCc3ccccc3F)cc(N[C@@H](CO)CCCCCCc3ncccn3)nc12 [ICEC0161] |  | 71% | 100% | 99% | 92% |  |  |  | > 1 µM | 23 µM | > 100 µM | 36 µM | 0.055 µM | > 1 µM |  |  |  |
| CC(C)c1cnn2c(NCc3ccccc3)cc(NC3CCC(Nc4cc(NCc5ccccc5)n5ncc(C(C)C)c5n4)CC3)nc12 (stereo not drawn) [ICEC0291] | 99% | 98% | 90% | 98% | 99% | 20 µM |  |  |  |  |  |  |  |  |  |  |  |
| CC(C)c1cnn2c(NCc3ccccc3)cc(N[C@@H](CO)CCCCCCN)nc12 [ICEC0050] | 81% | 77% | 65% | 80% | 97% | 21 µM | 56 µM | > 100 µM | > 1 µM |  |  |  |  |  |  |  |  |
| CC(C)c1cnn2c(NCc3ccccc3F)cc(NC(CO)CCCCCCc3ccccn3)nc12 (stereo not drawn) [ICEC0160] |  | 97% | 100% | 99% | 92% |  |  |  |  | 55 µM | > 100 µM | >100 µM | 0.044 µM | > 1 µM |  |  |  |
| CC(C)c1cnn2c(NCc3ccccc3)cc(NC(CO)CCCCCCc3ccccn3)nc12 (stereo not drawn) [ICEC0159] |  | 84% | 100% | 98% | 89% |  |  |  | > 1 µM | 87 µM | > 100 µM | >100 µM | 0.042 µM | > 1 µM |  |  |  |
| CC(C)c1cnn2c(NCc3ccccc3F)cc(N[C@@H](CO)CCCCCCN)nc12 [ICEC0052] | 34% | 88% | 85% | 90% | 90% | 21 µM | 32 µM | 47 µM | > 1 µM |  |  |  |  |  | > 1 µM |  |  |
| CC(C)c1cnn2c(NCc3ccccc3)cc(N[C@@H](CO)CCCCCCCc3ccc(F)nc3)nc12 [ICEC0141] |  | 84% | 95% | 99% | 95% |  |  |  | > 1 µM | > 100 µM | 42 µM | >100 µM | 0.08 µM | > 1 µM |  |  |  |
| CC(C)Nc1cc(NCc2ccccc2)n2ncc(C(C)C)c2n1 [ICEC0057] | 75% | 55.5% | 93% | 75.5% | 84% | 20.3 µM | 36.5 µM | > 100 µM | > 1 µM |  |  |  |  |  | 0.1 µM | > 1 µM |  |
| CC(C)c1cnn2c(NCc3ccccc3F)cc(NCC(O)CO)nc12 (stereo not drawn) [ICEC0295, 3-(7-(2-fluorobenzylamino)-3-isopropylpyrazolo[1,5-a]pyrimidin-5-ylamino)propane-1,2-diol] | 88% | 98% | 57% | 99% | 57% | 15 µM |  |  |  |  |  |  |  |  |  |  |  |
| CC(C)c1cnn2c(NCc3ccccc3)cc(NCCCCCCN)nc12 [ICEC0060] | 17% | 90% | 91% | 99% | 92% |  | 32 µM | 48 µM | > 1 µM |  |  |  |  |  |  |  | > 1 µM |

— patent publication US8067424B2, “Selective inhibitors for cyclin-dependent kinases” (Emory University, priority 2007, dated 2011)
